Data from patent publication US10456414B2, “Methods for treating HCV” (priority 2011, dated 2019).
“And” between values parts separate entries of the source, which are not always exact repeats. Identical values can stand only once. Like-named read-outs stand apart in the source and are kept apart here. Marks after values point to notes of the source that are not given here.

Tests used:
[1] = system: Huh-7 cells carrying a HCV genotype 1a replicon; test: Cytotoxicity combination studies with Compound 4, MacSynergy II; conditions: for Antagonism Volume (cytotoxicity) / Synergy Volume (cytotoxicity): in combination with Compound 4, mean ± standard deviation
[2] = system: HCV genotype 1a replicon; test: HCV genotype 1a replicon assay, EC50 (Biological Example 3); format: cell-based; conditions: 3 days
[3] = system: HCV 1b replicon system (Huh-luc); test: Antiviral combination studies with Compound 6, MacSynergy II; conditions: for Interaction: in combination with Compound 6; for Antagonism Volume / Synergy Volume: in combination with Compound 6, mean ± standard deviation
[4] = system: HCV genotype 1a replicon; test: Antiviral combination studies with Compound 4, MacSynergy II; conditions: for Interaction: in combination with Compound 4; for Antagonism Volume / Synergy Volume: in combination with Compound 4, mean ± standard deviation
[5] = system: 1b Huh-luc replicon cells; test: Antiviral combination studies with Compound 5, MacSynergy II; format: cell-based, HCV; conditions: for Interaction: in combination with Compound 5; for Antagonism Volume / Synergy Volume: in combination with Compound 5, mean ± standard deviation
Protocol: Combination data were analyzed based on the Bliss Independence model using MacSynergy II software. Results of the combination assays were expressed as mean synergy and antagonism volumes (nM^2) calculated at 95% confidence from two independent experiments performed in triplicate.

[6] = system: Huh-7 cells carrying a HCV genotype 1a replicon; test: HCV genotype 1a replicon assay, CC50 by calcein AM (Biological Example 3); format: cell-based; conditions: genotype 1a replicon cells, 3 days
Protocol: The CC50 assay was performed first.

[7] = system: genotype 1b replicon RNA; test: Replicon RNA suppression, 6 day assay, QRT-PCR
[8] = system: Genotype 1 b replicon cells; test: Compound combination replicon cure assay, colony formation; conditions: 6 days treatment at the same concentrations, then G418 for 14 days
[9] = Drug-drug interactions of co-administered compounds (exposure); format: in vivo
Protocol: With respect to Compounds 9 and 10, or pharmaceutically acceptable salts thereof, the composition may comprise 10 mg to 1000 mg per day (according to US 2010/0298257). With respect to Compound 11, or pharmaceutically acceptable salts thereof, the composition may comprise 1 mg to 1000 mg per day (according to US 2010/0081628).

[10] = HCV genotype 1a replicon assay, CC50 by calcein AM (Biological Example 8); conditions: human, Huh-7 cells carrying an HCV genotype 1a replicon
[11] = system: HCV genotype 1a replicon; test: HCV genotype 1a replicon assay, EC50 (Biological Example 8); conditions: Hepatitis C virus, 72 h
[12] = system: Huh-7 cells carrying an HCV genotype 1a replicon
[13] = system: HCV genotype 1a replicon; test: Antiviral combination studies with Compound 10, MacSynergy II; conditions: in combination with Compound 10
[14] = human, dose of 800 mg/day; cited from earlier work
[15] = system: GT2a NS5B S282T mutant replicon; test: microbe, parasite or virus in culture; format: cell-based, HCV; conditions: Hepatitis C virus, GT2A, 72 h, read-out: EC50 S282T
[16] = system: GT2a wild-type replicon; test: microbe, parasite or virus in culture; format: cell-based, HCV; conditions: Hepatitis C virus, 72 h, 3 days
[17] = system: GT4a NS5B S282T mutant chimeric replicon; test: microbe, parasite or virus in culture; format: cell-based, HCV; conditions: Hepatitis C virus, GT4A, 72 h, read-out: EC50 S282T
[18] = system: GT3a wild-type chimeric replicon (3a NS5B in GT1b backbone); test: microbe, parasite or virus in culture; format: cell-based, HCV; conditions: Hepatitis C virus, 72 h, read-out: EC50 WT
[19] = system: GT4a wild-type chimeric replicon (4a NS5B in GT1b backbone); test: microbe, parasite or virus in culture; format: cell-based, HCV; conditions: Hepatitis C virus, 72 h, read-out: EC50 WT
[20] = system: GT3a NS5B S282T mutant chimeric replicon; test: microbe, parasite or virus in culture; format: cell-based, HCV; conditions: Hepatitis C virus, GT3A, 72 h, read-out: EC50 S282T
[21] = system: GT1b NS5B S282T mutant replicon; test: microbe, parasite or virus in culture; format: cell-based, HCV; conditions: Hepatitis C virus, GT1B, 72 h, read-out: EC50 S282T
[22] = system: GT2b NS5B S282T mutant chimeric replicon; test: microbe, parasite or virus in culture; format: cell-based, HCV; conditions: Hepatitis C virus, GT2B, 72 h, read-out: EC50 S282T
[23] = system: GT1b wild-type replicon; test: microbe, parasite or virus in culture; format: cell-based, HCV; conditions: Hepatitis C virus, 72 h, 3 days
[24] = system: GT2b wild-type chimeric replicon (2b NS5B in GT1b backbone); test: microbe, parasite or virus in culture; format: cell-based, HCV; conditions: Hepatitis C virus, 72 h, read-out: EC50 WT
[25] = Hepatitis C virus, 72 h, average ± standard deviation, read-out: EC50
[26] = single compound at the listed concentration, 6 days, relative to DMSO control (Table XIV)

| Compound | Interaction (cytotoxicity) ([1]; in combination with Compound 4) | Antagonism Volume (cytotoxicity) [1] | Synergy Volume (cytotoxicity) [1] | EC50 [2, 25] | Interaction [3] | Antagonism Volume [3] | Synergy Volume [3] | Antagonism Volume [4] | Synergy Volume [4] | Antagonism Volume [5] | Synergy Volume [5] | CC50 ([6]; read-out: CC50) | CC50 at 3 days [10] | also measured |
| --- | --- | --- | --- | --- | --- | --- | --- | --- | --- | --- | --- | --- | --- | --- |
| COc1ccc2c(O[C@@H]3C[C@H]4C(=O)N[C@]5(P(=O)(O)Cc6c(F)cccc6F)C[C@H]5CCCCCCC[C@H](NC(=O)OC5CCCC5)C(=O)N4C3)cc(-c3csc(NC(C)C)n3)nc2c1Cl [Compound 2, (2R,6S,13aR,14aS,16aS)-2-(8-chloro-2-(2-(isopropylamino)thiazol-4-yl)-7-methoxyquinolin-4-yloxy)-6-(cyclopentyloxycarbonylamino)-5,16-dioxooctadecahydrocyclopropa[e]pyrrolo[1,2-a][1,4]diazacyclopentadecin-14a-yl(2,6-diflurobenzyl)phosphinic acid] | Additivity (Additivity: ≤25 and >−25 nM^2%) | 0 ± 0 nM^2% | 17 ± 14 nM^2% | 496 ± 135 nM | Moderate Synergy | −0.7 ± 0.7 nM^2 | 52 nM^2 and 52 ± 5.1 nM^2 | −2 ± 3 nM^2% | 22 ± 14 nM^2% | −7 ± 7 nM^2 | 22 ± 12 nM^2 | > 22.2 µM | – | Interaction [4]: Additivity (Additivity: ≤25 and >−25 nM^2%); Interaction [5]: Additive |
| CC(C)OC(=O)[C@H](C)N[P@](=O)(OC[C@H]1O[C@@](C#N)(c2ccc3c(N)ncnn23)[C@](C)(O)[C@@H]1OC(=O)C(C)C)Oc1ccccc1 [Compound 4] | – | – | – | 201 ± 74 nM | – | – | – | – | – | −1 ± 3 nM^2 | 26 ± 28 nM^2 | – | – | Interaction (cytotoxicity) ([1]; in combination with Ribavirin (Table IX)): Additivity (Additivity: ≤25 and >−25 nM^2%); Compound concentration able to induce replicon RNA 1-1.5 log drop in a 6 day assay ([7]; genotype 1b replicon cells, 6 days): 1000 nM; Replicon RNA log drop [7, 26]: −1.2 log; Uncured colony number [8]: 1054 |
| Fc1ccccc1-c1nc2ccn(Cc3ccc(-c4ccc(C(F)(F)F)cc4C(F)(F)F)nn3)cc-2n1 [Compound 1, 5-((6-(2,4-bis(trifluoromethyl)phenyl)pyridazin-3-yl)methyl)-2-(2-fluorophenyl)-5H-imidazo[4,5-c]pyridine] | Additivity (Additivity: ≤25 and >−25 nM^2%) | 0 ± 1 nM^2% | 13 ± 11 nM^2% | 19 ± 8 nM | – | −17 ± 0.7 nM^2 | 34 nM^2 and 34 ± 9.9 nM^2 | −1 ± 2 nM^2% | 34 ± 26 nM^2% | 0 ± 0 nM^2 | 70 ± 26 nM^2 | > 44.4 µM | > 44.4 µM | Replicon RNA log drop [7]: −1.0 log; Replicon RNA log drop [7, 26]: −1.0 log; increase of exposure of Compound 1 by Compound 2 ([9]; co-administered with Compound 2): 2-3 ×; effect on drug metabolizing systems ([9]; in vivo): does not appear that Compound 1 affects drug metabolizing systems; Uncured colony number [8]: 657 |
| CC1=CC[C@H](C(=O)N(c2cc(C#CC(C)(C)C)sc2C(=O)O)[C@H]2CC[C@](O)(CO[C@H]3CCOC3)CC2)CC1 [Compound 5, 5-(3,3-dimethylbut-1-yn-1-yl)-3-[(cis-4-hydroxy-4-{[(3S)-tetrahydrofuran-3-yloxy]methyl}cyclohexyl){[(1R)-4-methylcyclohex-3-en-1-yl]carbonyl}amino]thiophene-2-carboxylic acid] | Additivity (Additivity: ≤25 and >−25 nM^2%) | −10 ± 7 nM^2% | 15 ± 8 nM^2% | 15 ± 2.4 nM | – | – | – | −1 ± 3 nM^2% | 26 ± 28 nM^2% | – | – | > 44.4 µM | > 44.4 µM | EC50 [11]: 0.014 µM; Cytotoxicity at Highest Concentration of Compound Combinations (% inhibition on cell growth) ([12]; with 320 nM Compound 10 and the highest concentration of the listed compound): 4.3 ± 2.9%; Interaction [13]: Additive |
| CC(C)C(=O)OCC1O[C@@H](n2ccc(N)nc2=O)[C@](C)(F)[C@@H]1OC(=O)C(C)C (stereo partly shown) [Compound 7] | – | – | – | – | Moderate Synergy | −0.2 ± 0.1 nM^2 | 51 nM^2 and 51 ± 7.8 nM^2 | – | – | – | – | – | – | – |
| NC(=O)c1ncn([C@@H]2O[C@H](CO)[C@@H](O)[C@H]2O)n1 [Ribavirin, 1-β-D-ribofuranosyl-1H-1,2,4-Triazole-3-carboxamide, reference compound] | – | – | – | 36500 ± 17500 nM | Moderate Synergy | −0.5 ± 0.1 nM^2 | 61 nM^2 and 61 ± 0.5 nM^2 | −43 nM^2% and −43 ± 20 nM^2% | 1 ± 1 nM^2% | −12 ± 9 nM^2 | 12 ± 8 nM^2 | > 88.8 µM | > 88.8 µM | steady-state plasma concentration [14]: 6 to 11 µM; EC50 [11]: 33.6 µM; EC50 [15]: 0.6 nM; EC50 [16]: 8.3 nM; cell viability ([12]; combined with Compound 10, highest combined concentrations tested): greater than 85%; EC50 [17]: 0.6 nM; Interaction [5]: Additive; EC50 [18]: 6.7 nM; EC50 [19]: 6.2 nM; EC50 [20]: 1 nM; EC50 [21]: 1.6 nM; Interaction [13]: Minor; EC50 [22]: 0.6 nM; EC50 [23]: 6.6 nM; EC50 [24]: 2.6 nM |
| IFN-α | Additivity (Additivity: ≤25 and >−25 nM^2%) | −7 ± 13 nM^2% | 8 ± 12 nM^2% | – | Minor Synergy | 0.0 ± 0.0 nM^2 | 32 nM^2 and 32 ± 1.4 nM^2 | 0 ± 0 nM^2% | 12 ± 6 nM^2% | – | – | – | – | EC50 ([2]; IFN-α in Units per milliliter): 1.4 ± 0.3^b U/mL; Interaction [4]: Additivity (Additivity: ≤25 and >−25 nM^2%); CC50 ([6]; IFN-α in Units per milliliter): >50^b U/mL |
